Data taken from paper PMC2551328 (Biochemistry, 2008).

Tests used:
Format in all cases: biochemical
M.tb PGDH G316V = M.tb PGDH G316V (Mycobacterium tuberculosis, UniProt P9WNX3, G315V)
M.tb PGDH D463A = M.tb PGDH D463A (Mycobacterium tuberculosis, UniProt P9WNX3, D462A)
M.tb PGDH G317V = M.tb PGDH G317V (Mycobacterium tuberculosis, UniProt P9WNX3, G316V)
M.tb PGDH G316, 317V = M.tb PGDH G316, 317V (Mycobacterium tuberculosis, UniProt P9WNX3, G315V/G316V)
M.tb PGDH G316, 318V = M.tb PGDH G316, 318V (Mycobacterium tuberculosis, UniProt P9WNX3, G315V/G317V)
M.tb PGDH Y461A = M.tb PGDH Y461A (Mycobacterium tuberculosis, UniProt P9WNX3, Y460A)
M.tb PGDH G318V = M.tb PGDH G318V (Mycobacterium tuberculosis, UniProt P9WNX3, G317V)
M.tb PGDH N481A = M.tb PGDH N481A (Mycobacterium tuberculosis, UniProt P9WNX3, N480A)
M.tb PGDH G317, 318V = M.tb PGDH G317, 318V (Mycobacterium tuberculosis, UniProt P9WNX3, G316V/G317V)

SMILES: O=C(O)C(=O)COP(=O)(O)O [HPAP, hydroxypyruvic acid phosphate]
- Ki (M.tb PGDH G316V): 2230 ± 190 µM
- Km (M.tb PGDH G316V): 114 ± 4 µM
- kcat (M.tb PGDH G316V): 1111 ± 30 s⁻¹
- Ki (M.tb PGDH D463A): 1090 ± 165 µM
- Km (M.tb PGDH D463A): 140 ± 10 µM
- kcat (M.tb PGDH D463A): 720 ± 89 s⁻¹
- Ki (M.tb PGDH G317V): 1110 ± 148 µM
- Km (M.tb PGDH G317V): 165 ± 9 µM
- kcat (M.tb PGDH G317V): 2111 ± 119 s⁻¹
- Ki (M.tb PGDH G316, 317V): 380 ± 45 µM
- Km (M.tb PGDH G316, 317V): 610 ± 95 µM
- kcat (M.tb PGDH G316, 317V): 2805 ± 310 s⁻¹
- Ki (M.tb PGDH G316, 318V): 220 ± 35 µM
- Km (M.tb PGDH G316, 318V): 470 ± 43 µM
- kcat (M.tb PGDH G316, 318V): 2827 ± 197 s⁻¹
- Ki (M.tb PGDH Y461A): 420 ± 65 µM
- Km (M.tb PGDH Y461A): 270 ± 60 µM
- kcat (M.tb PGDH Y461A): 2754 ± 300 s⁻¹
- Ki (M.tb PGDH G318V): 1920 ± 437 µM
- Km (M.tb PGDH G318V): 203 ± 23 µM
- kcat (M.tb PGDH G318V): 2349 ± 177 s⁻¹
- Ki (M.tb PGDH N481A): 2320 ± 337 µM
- Km (M.tb PGDH N481A): 120 ± 15 µM
- kcat (M.tb PGDH N481A): 603 ± 77 s⁻¹
- Ki (M.tb PGDH G317, 318V): 1620 ± 402 µM
- Km (M.tb PGDH G317, 318V): 220 ± 43 µM
- kcat (M.tb PGDH G317, 318V): 605 ± 27 s⁻¹

SMILES: N[C@@H](CO)C(=O)O [L-serine, reference compound]
- Hill Coefficient (M.tb PGDH G316V): 1.6 ± 0.1
- Hill Coefficient (M.tb PGDH D463A): 1.4 ± 0.1
- Hill Coefficient (M.tb PGDH G317V): 1.5 ± 0.1
- Hill Coefficient (M.tb PGDH G316, 317V): 1.7 ± 0.1
- Hill Coefficient (M.tb PGDH G316, 318V): 1.9 ± 0.1
- Hill Coefficient (M.tb PGDH Y461A): 1.7 ± 0.1
- Hill Coefficient (M.tb PGDH G318V): 2.5 ± 0.1
- decrease in sensitivity to serine (M.tb PGDH G318V): about 5 fold
- Hill Coefficient (M.tb PGDH G317, 318V): 1.9 ± 0.1
